Reference: US12492173B2, “Herbicidal substituted N-tetrazolyl aryl carboxamides” (Bayer Aktiengesellschaft, priority 2019, dated 2025)

Columns and labels:
Type in all cases: in vivo
Lolium multiflorum [1] = assay: Pre-emergence herbicidal action, LOLMU; details: for herbicidal activity LOLMU: dosage 320 g/ha, scored visually after 3 weeks vs untreated controls (100% = plants have died)
Source text: 1. Pre-Emergence Herbicidal Action Against Harmful Plants Seeds of monocotyledonous and dicotyledonous weed plants and crop plants are laid out in sandy loam soil in wood-fiber pots and covered with soil. The compounds of the invention, formulated in the form of wettable powders (WP) or as emulsion concentrates (EC), are then applied to the surface of the covering soil in the form of an aqueous suspension or emulsion at a water application rate equating to 600 to 800 l/ha, with addition of 0.2% wetting agent. After the treatment, the pots are placed in a greenhouse and kept under good growth conditions for the trial plants. The damage to the test plants is scored visually after a test period of 3 weeks by comparison with untreated controls (herbicidal activity in percent (%): 100% activity=the plants have died, 0% activity=like control plants). […] The tables below illustrate, in an exemplary manner, the […] herbicidal action of the compounds according to the invention, the herbicidal activity being stated in percent. [table] In the experiments that follow, herbicidal action of numerous inventive compounds and the known compounds that are structurally closest from D1 (WO 2012/028579 A1) and D2 (WO 2018/202535 A1) were compared under the above-specified conditions by the pre-emergence and post-emergence method. The example numbers given in the tables relate to the compounds disclosed in the respective documents. In addition to the compounds disclosed in D1 and D2, the following compounds V-1 to V-14 that are encompassed by D1 or D2 but are not compounds specified therein were used in the comparative experiments: • V-1: 2-(methylsulfanyl)-3-(methylsulfinyl)-N-(1-methyl-1H-tetrazol-5-yl)-4-(trifluoromethyl)benzamide • V-2: 2-(methylsulfanyl)-3-(methylsulfonyl)-N-(1-methyl-1H-tetrazol-5-yl)-4-(trifluoromethyl)benzamide • V-3: 2,3-bis(ethylsulfanyl)-N-(1-methyl-1H-tetrazol-5-yl)-4-(trifluoromethyl)benzamide • V-4: 2-chloro-3-(ethylsulfanyl)-N-(1-methyl-1H-tetrazol-5-yl)-4-(trifluoromethyl)benzamide • V-5: 2-chloro-4-iodo-3-(methylsulfanyl)-N-(1-methyl-1H-tetrazol-5-yl)benzamide • V-6: 2-chloro-4-iodo-3-(methylsulfinyl)-N-(1-methyl-1H-tetrazol-5-yl)benzamide • V-7: 2-chloro-4-iodo-3-(methylsulfonyl)-N-(1-methyl-1H-tetrazol-5-yl)benzamide • V-8: 2-bromo-3-(methylsulfanyl)-N-(1-methyl-1H-tetrazol-5-yl)-4-(trifluoromethyl)benzamide • V-9: 2-bromo-3-(methylsulfinyl)-N-(1-methyl-1H-tetrazol-5-yl)-4-(trifluoromethyl)benzamide • V-10: 2-bromo-3-(methylsulfonyl)-N-(1-methyl-1H-tetrazol-5-yl)-4-(trifluoromethyl)benzamide • V-11: 2-bromo-3-(ethylsulfanyl)-N-(1-methyl-1H-tetrazol-5-yl)-4-(trifluoromethyl)benzamide • V-12: 2-bromo-3-(ethylsulfinyl)-N-(1-methyl-1H-tetrazol-5-yl)-4-(trifluoromethyl)benzamide • V-13: 2-bromo-3-(ethylsulfonyl)-N-(1-methyl-1-1H-tetrazol-5-yl)-4-(trifluoromethyl)benzamide • V-14: 2-cyclopropyl-3-(ethylsulfanyl)-N-(1-methyl-1H-tetrazol-5-yl)-4-(trifluoromethyl)benzamide Herbicidal Pre-Emergence Action: […]

Setaria viridis = assay: Pre-emergence herbicidal action, SETVI; parameters: key to Herbicidal action against SETVI: % activity: 100 = plants have died, 0 = like control plants; details: for herbicidal activity SETVI: dosage 320 g/ha, scored visually after 3 weeks vs untreated controls (100% = plants have died)
How it was run: (§1)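 Seeds sown in sandy loam in pots and covered with soil; compounds formulated as WP or EC were sprayed onto the soil surface as aqueous suspension/emulsion at 600 to 800 l/ha water with 0.2% wetting agent. Greenhouse growth; visual damage scored after 3 weeks versus untreated controls (100% = plants died, 0% = like control).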

Cyperus esculentus [2] = assay: Post-emergence herbicidal action, CYPES; parameters: key: % herbicidal action vs untreated; 100 = plants died, 0 = like control; details: post-emergence; for Herbicidal action against CYPES: comparative experiment, 5 g of a.i./ha; for herbicidal action CYPES: dosage 80 g/ha
How it was run: (§2)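 WP or EC formulations, diluted in water at 600 to 800 l/ha with 0.2% wetting agent, are sprayed onto green parts of one-leaf-stage plants grown in sandy loam. Visual assessment of percent damage relative to untreated controls follows after approximately 3 weeks in the greenhouse.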

Lolium multiflorum [3] = assay: Post-emergence herbicidal action, LOLMU; parameters: key: % herbicidal action: 100 = plants died, 0 = like control; details: post-emergence, dosage 80 g/ha
How it was run: as §2

Veronica persica = assay: Post-emergence herbicidal action, VERPE; parameters: key: % herbicidal action vs untreated; 100 = plants died, 0 = like control
How it was run: as §2

Cyperus esculentus [4] = assay: Pre-emergence herbicidal action, CYPES; parameters: key: % activity: 100 = plants have died, 0 = like control plants; details: comparative experiment, 20 g of a.i./ha
How it was run: as §1

Pharbitis purpurea = assay: Pre-emergence herbicidal action, PHBPU; details: for herbicidal activity PHBPU: dosage 320 g/ha, scored visually after 3 weeks vs untreated controls (100% = plants have died)
How it was run: as §1

[5] = comparative experiment, 20 g of a.i./ha
[6] = comparative experiment, post-emergence, 5 g of a.i./ha

Cn1nnnc1NC(=O)c1ccc(C(F)(F)F)c(C[S+](C)[O-])c1Cl (racemic) [Example 1-297]
Herbicidal action against LOLMU (Lolium multiflorum [1]; [5]): 30 | herbicidal activity LOLMU (Lolium multiflorum [1]): 100% | herbicidal activity SETVI (Setaria viridis): 100% | Herbicidal action against CYPES (Cyperus esculentus [2]): 60 | herbicidal action CYPES (Cyperus esculentus [2]): 80% | herbicidal action LOLMU (Lolium multiflorum [3]): 100% | herbicidal action VERPE (Veronica persica; post-emergence, dosage 80 g/ha): 100% | Herbicidal action against CYPES (Cyperus esculentus [4]): 100 | herbicidal activity PHBPU (Pharbitis purpurea): 90%

Cc1c(C(=O)Nc2nnnn2C)ccc(C(F)(F)F)c1C[S+](C)[O-] (stereo not shown) [Example 1-84]
herbicidal activity SETVI (Setaria viridis): 100% | herbicidal action CYPES (Cyperus esculentus [2]): 80% | herbicidal action LOLMU (Lolium multiflorum [3]): 80% | herbicidal action VERPE (Veronica persica; post-emergence, dosage 80 g/ha): 100% | herbicidal activity PHBPU (Pharbitis purpurea): 80%

COc1c(C(=O)Nc2nnnn2C)ccc(C(F)(F)F)c1CSC [Example 1-134]
herbicidal activity SETVI (Setaria viridis): 100% | herbicidal action VERPE (Veronica persica; Dosage 80 g/ha): 100 | Herbicidal action against VERPE (Veronica persica; [6]): 100 | Herbicidal action against VERPE (Veronica persica; post-emergence, dosage 80 g/ha): 100 | Herbicidal action against CYPES (Cyperus esculentus [4]): 50 | Herbicidal action against PHBPU (Pharbitis purpurea; [5]): 20 | herbicidal activity PHBPU (Pharbitis purpurea): 80%

CSCc1c(C(F)(F)F)ccc(C(=O)Nc2nnnn2C)c1Cl [Example 1-296]
herbicidal activity LOLMU (Lolium multiflorum [1]): 90% | herbicidal activity SETVI (Setaria viridis): 100% | herbicidal action CYPES (Cyperus esculentus [2]): 90% | herbicidal action LOLMU (Lolium multiflorum [3]): 90% | herbicidal action VERPE (Veronica persica; post-emergence, dosage 80 g/ha): 100%

Cn1nnnc1NC(=O)c1ccc(C(F)(F)F)c(CS(C)(=O)=O)c1Cl [Example 1-298]
herbicidal activity LOLMU (Lolium multiflorum [1]): 90% | herbicidal activity SETVI (Setaria viridis): 100% | Herbicidal action against CYPES (Cyperus esculentus [2]): 60 | herbicidal action CYPES (Cyperus esculentus [2]): 90% | herbicidal action LOLMU (Lolium multiflorum [3]): 80% | Herbicidal action against VERPE (Veronica persica; [6]): 90 | herbicidal action VERPE (Veronica persica; post-emergence, dosage 80 g/ha): 100% | Herbicidal action against CYPES (Cyperus esculentus [4]): 100 | herbicidal activity PHBPU (Pharbitis purpurea): 90%

CSCc1c(C(F)(F)F)ccc(C(=O)Nc2nnnn2C)c1Br [Example 1-380]
herbicidal activity SETVI (Setaria viridis): 100% | herbicidal action LOLMU (Lolium multiflorum [3]): 100% | herbicidal action VERPE (Veronica persica; post-emergence, dosage 80 g/ha): 100% | Herbicidal action against CYPES (Cyperus esculentus [4]): 60 | herbicidal activity PHBPU (Pharbitis purpurea): 80%

Cn1nnnc1NC(=O)c1ccc(C(F)(F)F)c(C[S+](C)[O-])c1Br (stereo not shown) [Example 1-381]
Herbicidal action against SETVI (Setaria viridis; [5]): 80 | herbicidal activity SETVI (Setaria viridis): 100% | herbicidal action CYPES (Cyperus esculentus [2]): 90% | herbicidal action LOLMU (Lolium multiflorum [3]): 80% | herbicidal action VERPE (Veronica persica; post-emergence, dosage 80 g/ha): 100% | herbicidal activity PHBPU (Pharbitis purpurea): 80%

CCn1nnnc1NC(=O)c1ccc(C(F)(F)F)c(C[S+](C)[O-])c1Br (stereo not shown) [Example 2-381]
herbicidal activity LOLMU (Lolium multiflorum [1]): 80% | herbicidal activity SETVI (Setaria viridis): 100% | herbicidal action LOLMU (Lolium multiflorum [3]): 80% | herbicidal action VERPE (Veronica persica; post-emergence, dosage 80 g/ha): 100% | herbicidal activity PHBPU (Pharbitis purpurea): 80%

CCSCc1c(C(F)(F)F)ccc(C(=O)Nc2nnnn2CC)c1Br [Example 2-383]
herbicidal activity LOLMU (Lolium multiflorum [1]): 100% | herbicidal activity SETVI (Setaria viridis): 100% | herbicidal action LOLMU (Lolium multiflorum [3]): 80% | herbicidal action VERPE (Veronica persica; post-emergence, dosage 80 g/ha): 100%
